The text below walks through data of ChEMBL document CHEMBL5050851, “Compounds that induce ferroptic cell death” (2020).

In one test the test system is ES-2. Briefly: Antiproliferative activity against human ES2 cells assessed as cell death after 72 hrs by Alamar blue viability assay. The class given is functional, cell-based. The note with it: ES-2, 72 h. (Alamar Blue is a resazurin reagent that responds to reducing activity.)
The next test relates to HCT-116. Briefly: Antiproliferative activity against human HCT-116 cells assessed as cell death after 72 hrs by Alamar blue viability assay. It is filed as functional, cell-based. The note with it: HCT-116, 72 h.

A word on the IC50: it is the concentration that gives 50% inhibition. For `CC1=CC(C)=[N+]2C1=Cc1ccc(CCC(=O)NCCCn3cc(CN4C(=O)C5CC=C([C@@H]6C[C@@H](OC(=O)CI)[C@]7(C)[C@H](C)CC[C@]8(C[C@H](O)C(=O)[C@]87O)[C@H]6C)CC5C4=O)nn3)n1[B-]2(F)F` (stereo partly drawn), the figures for the IC50 in the test on ES-2 and with HCT-116 were 1.5 µM and 15.7 µM, respectively.

Consider `C#CCN1C(=O)C2CC=C([C@@H]3C[C@@H](OC(=O)CCl)[C@]4(C)[C@H](C)CC[C@]5(C[C@H](O)C(=O)[C@]54O)[C@H]3C)CC2C1=O` (stereo partly drawn), for which the IC50 in the test with ES-2 came out at 4 µM; with HCT-116, 10.5 µM.

With `C[C@@H]1CC[C@@]23C[C@H](O)C(=O)[C@@]2(O)[C@]1(C)[C@H](OC(=O)CF)C[C@@H](C1=CCn2c(=O)n(-c4ccccc4)c(=O)n2C1)[C@@H]3C`, the IC50 is 34 µM in the test with ES-2 and greater than 100 µM in the test with HCT-116.

In the case of `CO[C@H]1C[C@@]23CC[C@@H](C)[C@@](C)([C@H](OC(=O)C(Cl)Cl)C[C@@H](C4=CCn5c(=O)n(-c6ccccc6)c(=O)n5C4)[C@@H]2C)[C@]3(O)C1=O`, the IC50 in the test with ES-2 and in the test with HCT-116 was greater than 100 µM in each case.

As to `CC1=CC(C)=[N+]2C1=Cc1ccc(CCC(=O)NCCCn3cc(CN4C(=O)C5CC=C([C@@H]6C[C@@H](OC(=O)CCl)[C@]7(C)[C@H](C)CC[C@]8(C[C@H](O)C(=O)[C@]87O)[C@H]6C)CC5C4=O)nn3)n1[B-]2(F)F` (stereo partly drawn), the IC50 came to 5.3 µM with ES-2 and 14.2 µM in the test on HCT-116.

Turning to `C=CC(=C)[C@@H]1C[C@@H](OC(=O)CCl)[C@]2(C)[C@H](C)CC[C@]3(C[C@H](O)C(=O)[C@]32O)[C@H]1C`, the IC50 with ES-2 stood at 6.7 µM.

As for `CO[C@H]1C[C@@]23CC[C@@H](C)[C@@](C)([C@H](OC(=O)c4ccco4)C[C@@H](C4=CCn5c(=O)n(-c6ccccc6)c(=O)n5C4)[C@@H]2C)[C@]3(O)C1=O`, the IC50 in the test with ES-2 and in the test on HCT-116 was greater than 100 µM each time.
